Assay results: PMC6116705, “Design, synthesis, in vitro antiproliferative activity and apoptosis-inducing studies of 1-(3′,4′,5′-trimethoxyphenyl)-3-(2′-alkoxycarbonylindolyl)-2-propen-1-one derivatives obtained by a molecular hybridisation approach” (Journal of Enzyme Inhibition and Medicinal Chemistry, 2018)
Values joined by “and” are separate entries in the source; they are usually repeats but may differ in a detail not shown here. Equal entries are not always repeated.

Tests used:
U-937 cells = experiment: Cell cycle phase distribution and apoptosis, flow cytometry (propidium iodide) and fluorescence microscopy, U-937; format: cell-based, human
Experimental: (§1) Fluorescent microscopy and flow cytometric analysis of propidium iodide-stained cells were performed as described. Briefly, cells were harvested and fixed in 3% paraformaldehyde and incubated at room temperature for 10 min. The fixative was removed, and the cells were washed with PBS, resuspended in 30–50 μL of PBS containing 20 μg/mL bis-benzimide trihydrochloride (Hoechst 33258) and incubated at room temperature for 15 min. Stained nuclei were visualized using a Zeiss fluorescence microscope.
(§2) Flow cytometric analysis was carried out using a BD FACSVerse™ cytometer (BD Biosciences, San Jose, CA, USA).

U-937/Bcl-2 cells = experiment: Cell cycle phase distribution and apoptosis, flow cytometry (propidium iodide) and fluorescence microscopy, U-937/Bcl-2; format: cell-based, human
Experimental: as §1, §2

bovine brain tubulin = experiment: Inhibition of tubulin polymerisation (turbidimetric tubulin assembly); format: biochemical; settings: for IC50: tubulin 10 µM, 20 min at 30 °C, read-out: Tubulin assembly IC50±SD
Experimental: To evaluate the effect of the compounds on tubulin assembly in vitro[40], varying concentrations of compounds were preincubated with 10 μM bovine brain tubulin in 0.8M monosodium glutamate (pH adjusted to 6.6 with HCl in a 2.0M stock solution) at 30 °C and then cooled to 0 °C. After addition of 0.4 mM GTP, the mixtures were transferred to 0 °C cuvettes in a recording spectrophotometer and warmed to 30 °C. Tubulin assembly was followed turbidimetrically at 350 nm. […] The capacity of the test compounds to inhibit colchicine binding to tubulin was measured as described. The reaction mixtures contained 1 μM tubulin, 5 μM [^3H]colchicine and 5 μM test compound.

[1] = tested on: human myeloid leukaemia U-937 cells; experiment: MTT cytotoxicity assay, U-937; format: cell-based; settings: U-937, MTT, 72 h, read-out: IC50, inhibition of cell growth
Experimental: U-937 (human myeloid leukaemia) cells from DSMZ (German Collection of Microorganisms and Cell Cultures, Braunschweig, Germany) and U-937 cells overexpressing human Bcl-2 protein (designated U-937/Bcl-2, donated by Dr Jacqueline Bréard, INSERM U749, Faculté de Pharmacie Paris-Sud., Châtenay-Malabry, France) were cultured in RPMI-1640 medium containing 10% (v/v) heat-inactivated foetal bovine serum, 100 μg/mL streptomycin and 100 U/mL penicillin, incubated at 37 °C in a humidified atmosphere containing 5% CO2 as described. The functioning of U-937/Bcl-2 cells was tested using the cytotoxic agent 1-β-D-arabino-furanosylcytosine as previously described. Human peripheral blood mononuclear cells (PBMC) were isolated from heparin-anticoagulated blood of healthy volunteers by centrifugation with Ficoll-Paque Plus (GE Healthcare Bio-Sciences AB, Uppsala, Sweden). PBMC were also stimulated with phytohemagglutinin (2 μg/mL) for 48 h before the experimental treatment. The trypan blue dye exclusion method was used for counting the living/dead cells by a hematocytometer with 95% viability in all experiments. The cytotoxicity of compounds was evaluated by the colorimetric 3-(4,5-dimethyl-2-thiazolyl-)-2,5-diphenyl-2H-tetrazolium bromide (MTT) assay as previously described. Briefly, 5 × 10^3 exponentially growing cells were seeded in 96-well microculture plates with increasing concentrations of compounds for 72 h. After the addition of MTT (0.5 mg/mL), cells were incubated at 37 °C for 4 h. Sodium dodecyl sulphate (10% w/v) in 0.05 M HCl was added to the wells and then incubated at room temperature overnight in the dark. Absorbance was measured at 570 nm. […] Values are mean ± SE from at least three independent experiments, each performed in triplicate. Compounds were dissolved in DMSO and kept in the dark at 25 °C.

[2] = tested on: human colon adenocarcinoma (HT29) cells; experiment: Antiproliferative assay, cell counting (Coulter Counter), HT29; format: cell-based; settings: for fold more potent than CA-4: HT29 cell line, ratio of IC50 values
Experimental: (§3) Human cervix carcinoma (HeLa), human colon carcinoma (HT29), human breast carcinoma (MCF-7) and human lymphoma (HL-60) cells (3–5 × 10^4 cells) and a serial (five-fold) dilution of the test compounds were added to a 96-well microtiter plate. The cells were incubated for 72–96 h (depending on the tumor cell line) at 37 °C in a humidified 5% CO2 atmosphere. At the end of the incubation period, the cells were counted in a Coulter Counter (Coulter Electronics Ltd, Harpenden Herts, UK). […] The IC50 values represent the average (±standard deviation) of at least two to four independent experiments.

[3] = tested on: human promyelocytic leukemia (HL-60) cells; experiment: Antiproliferative assay, cell counting (Coulter Counter), HL-60; format: cell-based; settings: Homo sapiens; HL-60, 72–96 h; read-out: IC50, inhibition of proliferation
Experimental: as §3

## CCOC(=O)c1[nH]c2ccc(OC)cc2c1/C=C/C(=O)c1cc(OC)c(OC)c(OC)c1 [Compound 9d, (E)-Ethyl 5-methoxy-3-(3-oxo-3-(3,4,5-trimethoxyphenyl)prop-1-en-1-yl)-1H-indole-2-carboxylate]
U-937 cells; U-937, 24 h, 3 µM
  % G1: 52.3 ± 0.2%
  % G2-M: 21.2 ± 0.4%
  % S: 21.8 ± 0.0%
  % Sub-G1: 3.5 ± 0.3%
U-937 cells; U-937, 24 h, 10 µM
  % G1: 44.9 ± 0.6%
  % G2-M: 24.8 ± 0.3%
  % S: 22.9 ± 0.4%
  % Sub-G1: 5.6 ± 0.5%
U-937 cells; U-937, 48 h, 3 µM
  % G1: 52.9 ± 0.9%
  % G2-M: 18.3 ± 0.3%
  % S: 25.8 ± 0.5%
  % Sub-G1: 2.3 ± 0.1%
U-937 cells; U-937, 48 h, 10 µM
  % G1: 55.3 ± 0.7%
  % G2-M: 16.9 ± 0.5%
  % S: 23.1 ± 0.1%
  % Sub-G1: 4.1 ± 0.4%
U-937 cells; U-937, 72 h, 3 µM
  % G1: 53.6 ± 2.4%
  % G2-M: 15.4 ± 1.0%
  % S: 21.3 ± 1.0%
  % Sub-G1: 7.9 ± 0.2%
U-937 cells; U-937, 72 h, 10 µM
  % G1: 55.1 ± 0.0%
  % G2-M: 15.5 ± 0.8%
  % S: 22.6 ± 0.7%
  % Sub-G1: 5.4 ± 0.2%
U-937 cells; U-937 cells
  apoptosis induction (fluorescence microscopy and flow cytometry): not an apoptotic inducer
U-937/Bcl-2 cells; U-937/Bcl-2, 24 h, 0.3 µM
  % G1: 41.0 ± 1.3%
  % G2-M: 29.7 ± 0.2%
  % S: 25.1 ± 1.1%
  % Sub-G1: 2.8 ± 0.2%
U-937/Bcl-2 cells; U-937/Bcl-2, 24 h, 1 µM
  % G1: 29.3 ± 0.3 %
  % G2-M: 35.7 ± 0.2 %
  % S: 28.7 ± 0.5%
  % Sub-G1: 4.6 ± 0.3%
U-937/Bcl-2 cells; U-937/Bcl-2, 48 h, 0.3 µM
  % G1: 49.1 ± 0.4%
  % G2-M: 18.9 ± 0.7%
  % S: 26.7 ± 2.2%
  % Sub-G1: 4.4 ± 1.0%
U-937/Bcl-2 cells; U-937/Bcl-2, 48 h, 1 µM
  % G1: 33.2 ± 2.3 %
  % G2-M: 31.0 ± 2.8 %
  % S: 27.4 ± 0.2%
  % Sub-G1: 6.5 ± 0.5%
U-937/Bcl-2 cells; U-937/Bcl-2, 72 h, 0.3 µM
  % G1: 53.6 ± 1.2%
  % G2-M: 20.0 ± 0.8%
  % S: 21.8 ± 1.4%
  % Sub-G1: 3.1 ± 0.9%
U-937/Bcl-2 cells; U-937/Bcl-2, 72 h, 1 µM
  % G1: 41.6 ± 2.5 %
  % G2-M: 24.8 ± 2.6%
  % S: 24.0 ± 1.8%
  % Sub-G1: 7.5 ± 1.2%
U-937/Bcl-2 cells; U-937/Bcl-2 cells
  apoptosis induction (fluorescence microscopy and flow cytometry): only induced low apoptosis
Bovine brain tubulin
  IC50: > 20 µM
[1]
  IC50: 2.9 ± 0.7 µM
[2]
  fold more potent than CA-4: 8–24 fold
[3]
  IC50: 3.4 ± 1 µM

## COC(=O)c1[nH]c2cc(OC)ccc2c1/C=C/C(=O)c1cc(OC)c(OC)c(OC)c1 [Compound 9e, (E)-Methyl 6-methoxy-3-(3-oxo-3-(3,4,5-trimethoxyphenyl)prop-1-en-1-yl)-1H-indole-2-carboxylate]
U-937 cells; U-937, 24 h, 3 µM
  % G1: 43.2 ± 0.2%
  % G2-M: 24.5 ± 0.1%
  % S: 24.4 ± 0.1%
  % Sub-G1: 6.4 ± 0.4%
U-937 cells; U-937, 24 h, 10 µM
  % G1: 33.0 ± 2.1 %
  % G2-M: 23.2 ± 0.3%
  % S: 27.1 ± 0.5%
  % Sub-G1: 14.3 ± 1.6 %
U-937 cells; U-937, 48 h, 3 µM
  % G1: 53.6 ± 0.3%
  % G2-M: 16.5 ± 0.1%
  % S: 24.6 ± 0.3%
  % Sub-G1: 4.5 ± 0.2%
U-937 cells; U-937, 48 h, 10 µM
  % G1: 39.7 ± 1.1 %
  % G2-M: 17.6 ± 0.0%
  % S: 23.3 ± 0.1%
  % Sub-G1: 17.9 ± 1.2 %
U-937 cells; U-937, 72 h, 3 µM
  % G1: 52.0 ± 0.9 %
  % G2-M: 14.3 ± 0.2%
  % S: 21.2 ± 0.7%
  % Sub-G1: 10.8 ± 0.1%
U-937 cells; U-937, 72 h, 10 µM
  % G1: 44.5 ± 1.4 %
  % G2-M: 14.1 ± 0.4%
  % S: 21.4 ± 0.6%
  % Sub-G1: 18.4 ± 1.2 %
U-937/Bcl-2 cells; U-937/Bcl-2, 1 μM, 72 h, versus control
  fold increase in the percentage of apoptotic (hypodiploid) cells: ~20 fold
U-937/Bcl-2 cells; U-937/Bcl-2, 24 h, 0.3 µM
  % G1: 24.7 ± 0.5 %
  % G2-M: 40.1 ± 1.3 %
  % S: 23.2 ± 0.2%
  % Sub-G1: 9.8 ± 0.5 %
U-937/Bcl-2 cells; U-937/Bcl-2, 24 h, 1 µM
  % G1: 17.4 ± 0.2 %
  % G2-M: 47.3 ± 1.2 %
  % S: 18.1 ± 1.7 %
  % Sub-G1: 15% and 14.7 ± 0.7 %
U-937/Bcl-2 cells; U-937/Bcl-2, 48 h, 0.3 µM
  % G1: 23.0 ± 0.7 %
  % G2-M: 34.3 ± 0.5 %
  % S: 22.4 ± 0.2%
  % Sub-G1: 14.6 ± 0.4 %
U-937/Bcl-2 cells; U-937/Bcl-2, 48 h, 1 µM
  % G1: 13.0 ± 0.9 %
  % G2-M: 33.2 ± 0.9 %
  % S: 15.4 ± 0.1 %
  % Sub-G1: 28% and 28.0 ± 0.7 %
U-937/Bcl-2 cells; U-937/Bcl-2, 72 h, 0.3 µM
  % G1: 22.4 ± 0.4 %
  % G2-M: 31.3 ± 1.3 %
  % S: 21.8 ± 0.8%
  % Sub-G1: 17.6 ± 0.5 %
U-937/Bcl-2 cells; U-937/Bcl-2, 72 h, 1 µM
  % G1: 12.8 ± 0.5 %
  % G2-M: 23.1 ± 2.2%
  % S: 16.0 ± 0.7%
  % Sub-G1: 36% and 36.1 ± 3.3 %
Bovine brain tubulin; ratio of tubulin assembly IC50 values
  fold less potent than CA-4 as inhibitor of tubulin polymerisation: 10 fold
Bovine brain tubulin
  IC50: 6.2 ± 0.6 µM
[1]
  IC50: 5.7 ± 0.1 µM
[2]
  fold more potent than CA-4: 8–24 fold
[2]; Homo sapiens, HT-29, HT29, 72–96 h, read-out: IC50, inhibition of proliferation
  IC50: 0.16 ± 0.02 µM
[3]
  IC50: 18 ± 14 µM
